Data on 3 compounds can be found in ChEMBL document CHEMBL1155571, “Pelorol from the tropical marine sponge Dactylospongia elegans” (J Nat Prod, 2000).

As usually defined, the IC50 is the concentration that inhibits the measured activity by half. The term inhibition denotes the percentage by which the read-out fell short of the control. A higher inhibition goes with a response far below the control.

Test [1] concerns Plasmodium falciparum. In words: Antiplasmodial activity against Plasmodium falciparum K1. The test is classed as functional, organism-based.
Test [2] has as its system Plasmodium falciparum. The test is described as follows: Antiplasmodial activity against Plasmodium falciparum NF54. The class given is functional, organism-based.
Test [3] deals with Trypanosoma brucei rhodesiense. In words: Antitrypanosomal activity against Trypanosoma rhodesiense. The test is classed as functional, organism-based.
Test [4] deals with tyrosine kinase. The test is described as follows: Inhibition of tyrosine kinase at 1 ug/uL.

≈ marks a conversion by molar mass, not a printed value.

Regarding `C[C@@H]1CC[C@H]2[C@@H](C)C(=O)O[C@@H]3O[C@@]4(C)CC[C@@H]1[C@]32OO4` [ARTEMISININ], the half-maximal inhibitory concentration (IC50) in test [1] was 0.0014 µg/mL (≈ 0.00496 µM); in test [2] it was 0.0025 µg/mL (≈ 0.00885 µM).
As to `C=C1CCC[C@H]2[C@](C)(CC3=C(O)C(=O)C=C(OC)C3=O)[C@@H](C)CC[C@]12C` [ILIMAQUINONE], the IC50 turned out to be 7.7 µg/mL (≈ 21.5 µM) in test [3], 1.74 µg/mL (≈ 4.86 µM) in test [1] and 0.949 µg/mL (≈ 2.65 µM) in test [2]. This compound also registered an inhibition in test [4] of 87%.
For `COC(=O)c1cc(O)c(O)c2c1[C@]1(C)CC[C@H]3C(C)(C)CCC[C@]3(C)[C@H]1C2` [PELOROL], the IC50 in test [3] is 17.4 µg/mL (≈ 46.7 µM); in test [1], 0.786 µg/mL (≈ 2.11 µM); in test [2], 1.91 µg/mL (≈ 5.13 µM).
